The results in this text go back to patent US20260234157A1, “COMPOUND AND METHOD FOR TARGETED DEGRADATION OF ANDROGEN RECEPTOR” (Gan & Lee Pharmaceuticals Co., Ltd., priority 2023, published 2026).

Common to all, as to assay type: cell-based
One test has as its system VCaP cells. As to the kind of experiment: Inhibition of proliferation of VCaP cells (WST-8). The following applies: Homo sapiens; VCaP cells, 168 hours, WST-8 absorbance at 450 nm; read-out: IC50 for inhibiting the proliferation of VCaP cells. In a few lines:
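VCaP FGC cells, 15000 per well in DMEM with 10% FBS, were cultured at 37° C, 5% CO2. On day nine, WST-8 reagent was added to read proliferation.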

Test [1] has as its target T1, AR protein (Homo sapiens, UniProt P10275, T878A).
T1 construct: degradation activity of the compounds disclosed in the present disclosure on AR protein in LNCaP cells; host or cells: LNCaP FGC
T1 sequence (P10275 1-920 T878A): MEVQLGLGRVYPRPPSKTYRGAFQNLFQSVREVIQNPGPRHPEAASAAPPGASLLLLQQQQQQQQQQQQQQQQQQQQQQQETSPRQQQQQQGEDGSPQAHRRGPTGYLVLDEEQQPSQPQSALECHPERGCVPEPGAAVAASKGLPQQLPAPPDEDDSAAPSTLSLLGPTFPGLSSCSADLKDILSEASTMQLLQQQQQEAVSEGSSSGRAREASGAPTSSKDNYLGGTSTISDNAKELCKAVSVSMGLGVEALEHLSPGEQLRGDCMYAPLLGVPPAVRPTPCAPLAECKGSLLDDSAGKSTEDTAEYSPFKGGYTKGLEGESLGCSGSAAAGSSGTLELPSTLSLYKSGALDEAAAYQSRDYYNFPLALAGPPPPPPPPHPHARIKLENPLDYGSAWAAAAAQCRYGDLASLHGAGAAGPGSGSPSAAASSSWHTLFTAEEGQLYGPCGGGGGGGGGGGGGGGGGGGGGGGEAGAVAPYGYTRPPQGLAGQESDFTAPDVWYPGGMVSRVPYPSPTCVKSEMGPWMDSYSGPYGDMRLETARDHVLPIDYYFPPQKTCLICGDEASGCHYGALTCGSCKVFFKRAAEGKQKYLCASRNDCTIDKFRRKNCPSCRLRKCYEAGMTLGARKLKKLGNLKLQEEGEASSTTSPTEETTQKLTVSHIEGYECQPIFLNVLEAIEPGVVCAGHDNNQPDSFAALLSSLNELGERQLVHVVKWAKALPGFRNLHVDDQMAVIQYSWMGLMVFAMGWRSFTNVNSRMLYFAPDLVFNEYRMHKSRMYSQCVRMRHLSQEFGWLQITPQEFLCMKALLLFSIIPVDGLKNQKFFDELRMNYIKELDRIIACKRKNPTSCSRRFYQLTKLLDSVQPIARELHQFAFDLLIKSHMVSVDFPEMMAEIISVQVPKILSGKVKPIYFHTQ
As to the kind of experiment: Degradation of AR protein in LNCaP cells (Western blot). To be noted: LNCaP cells, 8 hours, Western blot grayscale, GAPDH internal reference; for inhibition at 0.01 µM: compound 10 nM, read-out: Degradation rates of the AR protein in LNCaP cells, 10 nM (%); for inhibition at 0.1 µM: compound 100 nM, read-out: Degradation rates of the AR protein in LNCaP cells, 100 nM (%). In a few lines:
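AR assessed by SDS-PAGE/Western blot with infrared imaging; band greyscale normalised to GAPDH gave percent degradation.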
On the technique in general: In western blotting, separated proteins are transferred to a membrane and probed.

In the next test the test system is LNCaP FGC cells. The experiment in a line: Inhibition of proliferation of LNCaP cells (WST-8). The following applies: Homo sapiens, LNCaP, 96 h, LNCaP FGC cells, 96 hours, WST-8 absorbance at 450 nm; read-out: IC50 for inhibiting the proliferation of LNCaP cells. How it is done:
The cells were cultured in a cell culture incubator with 5% CO2 at 37° C. overnight. […] On the sixth day, 96 well plates were taken out, and 20 μL of WST-8 (Beytime, C0040) reagent was added to each well.
In general terms: Tetrazolium dyes change colour on reduction, which living cells bring about.

The target in test [2] is T2, AR protein (Homo sapiens, UniProt P10275).
T2 construct: degradation activity of the compounds disclosed in the present disclosure on AR protein in VCaP cells; host or cells: VCaP
T2 sequence (P10275 1-920): T1 sequence (P10275 1-920 T878A) with A878T
The experiment in a line: Degradation of AR protein in VCaP cells (Western blot). To be noted: 8 hours; for inhibition at 0.01 µM: compound at 10 nM, read-out: Degradation rate of the AR protein in VCaP cells, 10 nM (%); for inhibition at 0.1 µM: compound at 100 nM, read-out: Degradation rate of the AR protein in VCaP cells, 100 nM (%). In a few lines:
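VCaP cells treated with compound alongside solvent controls for 8 h, then lysed in RIPA and protein quantified by BCA. AR detected by SDS-PAGE/Western blot with infrared imaging. Degradation rate calculated from band grayscale, with GAPDH as internal reference.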

Residue numbers refer to the chain shown, from its start.

In the case of `N#Cc1ccc(O[C@H]2CC[C@H](NC(=O)c3ccc(N4CCC(O)(CN5CCC6(CC5)COc5c6ccc6c5C(=O)N(C5CCC(=O)NC5=O)C6=O)CC4)nn3)CC2)cc1Cl` (stereo partly drawn) [Compound 213], the IC50 is 19 nM with VCaP cells and 1320 nM in the test with LNCaP FGC cells. In addition, the inhibition at 0.01 µM came to 47% on AR protein [1] and 32% at AR protein [2]. In addition, the inhibition at 0.1 µM on AR protein [1] was 67%; on AR protein [2], 75%.
On to `CCOC1(CN2CCC3(CC2)COc2c3ccc3c2C(=O)N(C2CCC(=O)NC2=O)C3=O)CCN(c2ccc(C(=O)N[C@H]3CC[C@H](Oc4ccc(C#N)c(OC)c4)CC3)nn2)CC1` (stereo partly drawn) [Compound 243], for which the results for the IC50 in the test with VCaP cells and with LNCaP FGC cells were 18 nM and 120 nM, respectively. Also, the figures for the inhibition at 0.01 µM at AR protein [1] and at AR protein [2] were 24% and 16%, respectively. The figures for the inhibition at 0.1 µM at AR protein [1] and on AR protein [2] were 58% and 68%, respectively.
Regarding `N#Cc1ccc(O[C@H]2CC[C@H](NC(=O)c3ccc(N4CCN(CC(=O)N5CCC6(CC5)COc5c6ccc6c5CN(C5CCC(=O)NC5=O)C6=O)CC4)nn3)CC2)cc1Cl` (stereo partly drawn) [Compound 241], the IC50 came to 8.5 nM in the test on VCaP cells and 68600 nM in the test with LNCaP FGC cells. The inhibition at 0.01 µM on AR protein [1] came out at 50%; at AR protein [2], 29%. Besides, the inhibition at 0.1 µM amounted to 63% at AR protein [1] and 77% at AR protein [2].
`N#Cc1ccc(O[C@H]2CC[C@H](NC(=O)c3ccc(C#Cc4ccc(N5CCC6(CC5)COc5c6ccc6c5CN(C5CCC(=O)NC5=O)C6=O)nc4)nn3)CC2)cc1Cl` (stereo partly drawn) [Compound 239]: the IC50 with VCaP cells was determined as 22 nM; in the test on LNCaP FGC cells, 13500 nM. Also, the inhibition at 0.01 µM on AR protein [1] is 65%; at AR protein [2] it was 11%. Moreover, the inhibition at 0.1 µM on AR protein [1] was found to be 69%; at AR protein [2] it was 54%.
Turning to `COc1cc(O[C@H]2C(C)(C)[C@H](NC(=O)c3ccc(N4CCC(F)(CN5CCC6(CC5)COc5cc7c(cc5C6)C(=O)N(C5CCC(=O)NC5=O)C7=O)CC4)cc3)C2(C)C)ccc1C#N` (stereo partly drawn) [Compound 271], the IC50 in the test on VCaP cells stood at 100 nM; in the test with LNCaP FGC cells, 37900 nM. Also, the results for the inhibition at 0.01 µM at AR protein [1] and on AR protein [2] were -3% and -47%, respectively. Moreover, the inhibition at 0.1 µM at AR protein [1] was 10%; at AR protein [2], -5%.
With `CC1(CN2CCC3(CC2)COc2c3ccc3c2C(=O)N(C2CCC(=O)NC2=O)C3=O)CCN(c2ncc(C(=O)NC3CCC(Oc4ccc(C#N)c(Cl)c4)CC3)cn2)CC1` (stereo not drawn) [Compound 245], the IC50 was found to be 100 nM in the test with VCaP cells and 1820 nM with LNCaP FGC cells. Also, the inhibition at 0.01 µM was determined as 2% at AR protein [1] and 3% on AR protein [2]. Moreover, the inhibition at 0.1 µM at AR protein [1] is 45%; on AR protein [2] it was 43%.
As for `COc1cc(O[C@H]2C(C)(C)[C@H](NC(=O)c3ccc(N4CCC(F)(CN5CCC6(CC5)COc5c6ccc6c5C(=O)N(C5CCC(=O)NC5=O)C6=O)CC4)cc3)C2(C)C)ccc1C#N` (stereo partly drawn) [Compound 275], the results for the IC50 in the test on VCaP cells and in the test with LNCaP FGC cells were 20 nM and 240 nM, respectively. The figures for the inhibition at 0.01 µM on AR protein [1] and at AR protein [2] were 30% and 7%, respectively. For the same compound, the inhibition at 0.1 µM worked out at 54% at AR protein [1] and 51% at AR protein [2].
Regarding `CC1(CN2CC3(CCc4cc5c(cc4O3)C(=O)N(C3CCC(=O)NC3=O)C5=O)C2)CCN(c2ccc(C(=O)N[C@H]3CC[C@H](Oc4ccc(C#N)c(Cl)c4)CC3)nn2)CC1` (stereo partly drawn) [Compound 2], the IC50 with VCaP cells amounted to 3910 nM; in the test on LNCaP FGC cells, 1250 nM. The inhibition at 0.01 µM came out at 66% at AR protein [1] and 21% on AR protein [2]. The values for the inhibition at 0.1 µM at AR protein [1] and at AR protein [2] were 50% and 56%, respectively.
Consider `N#Cc1ccc(O[C@H]2CC[C@H](NC(=O)c3ccc(C#CC4CCC(N5CCC6(CC5)COc5c6ccc6c5CN(C5CCC(=O)NC5=O)C6=O)CC4)nc3)CC2)cc1Cl` (stereo partly drawn) [Compound 235], for which the IC50 with VCaP cells is 2 nM; in the test on LNCaP FGC cells it was 840 nM. The inhibition at 0.01 µM at AR protein [1] worked out at 39%; at AR protein [2], 35%. Further, the figures for the inhibition at 0.1 µM on AR protein [1] and at AR protein [2] were 36% and 76%, respectively.
Turning to `COc1cc(O[C@H]2C(C)(C)[C@H](NC(=O)c3ccc(N4CCC(C)(CN5CCC6(CCc7cc8c(cc7O6)C(=O)N(C6CCC(=O)NC6=O)C8=O)CC5)CC4)cc3)C2(C)C)ccc1C#N` (stereo partly drawn) [Compound 287], the figures for the IC50 with VCaP cells and in the test with LNCaP FGC cells were 310 nM and 70500 nM, respectively. Also, the figures for the inhibition at 0.01 µM at AR protein [1] and on AR protein [2] were 28% and -31%, respectively. The results for the inhibition at 0.1 µM at AR protein [1] and on AR protein [2] were 51% and 13%, respectively.
On to `N#Cc1ccc(O[C@H]2CC[C@H](NC(=O)c3ccc(N4CC(N5CCC6(CC5)COc5c6ccc6c5C(=O)N(C5CCC(=O)NC5=O)C6=O)C4)nn3)CC2)cc1Cl` (stereo partly drawn) [Compound 142], for which the IC50 in the test on VCaP cells is 15100 nM; in the test with LNCaP FGC cells, greater than 90000 nM. Besides, the inhibition at 0.01 µM at AR protein [1] stood at 29%; on AR protein [2], 26%. Also, the inhibition at 0.1 µM on AR protein [1] worked out at 52%; on AR protein [2], 74%.
With `N#Cc1ccc(O[C@H]2CC[C@H](NC(=O)c3ccc(N4CCC5(CC(N6CCC7(CC6)COc6cc8c(cc67)C(=O)N(C6CCC(=O)NC6=O)C8=O)C5)C4)nn3)CC2)cc1Cl` (stereo partly drawn) [Compound 54], the IC50 in the test with VCaP cells was 47 nM; in the test on LNCaP FGC cells, 1700 nM. For the same compound, the inhibition at 0.01 µM on AR protein [1] is 24%; on AR protein [2], 75%. For the same compound, the inhibition at 0.1 µM amounted to 76% at AR protein [1] and 85% at AR protein [2].
Regarding `COc1cc(O[C@H]2C(C)(C)[C@H](NC(=O)c3ccc(N4CCC(C)(CN5CCC6(CC5)COc5c6ccc6c5CN(C5CCC(=O)NC5=O)C6=O)CC4)cc3)C2(C)C)ccc1C#N` (stereo partly drawn) [Compound 221], the IC50 in the test on VCaP cells worked out at 1.5 nM; in the test with LNCaP FGC cells, 46 nM. For the same compound, the inhibition at 0.01 µM was 24% at AR protein [1] and 16% on AR protein [2]. Moreover, the inhibition at 0.1 µM amounted to 76% on AR protein [1] and 64% at AR protein [2].
